Data as given in PubChem BioAssay (NCI).
Values joined by “and” are separate entries in the source; they are usually repeats but may differ in a detail not shown here. Identical values can stand only once.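 Grown in 96-well plates, cells were treated for 48 hours with each compound at five concentrations. Insufficient inhibition: endpoint recorded as highest concentration tested. Here, GI50 denotes the concentration required for 50% inhibition of growth. TGI: total growth inhibition.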

Legend:
Assay in all cases: NCI tumour cell line growth inhibition, 48 h
[1] = system: SN12C renal
[2] = system: SK-MEL-2 melanoma
[3] = system: CCRF-CEM leukemia
[4] = system: IGROV1 ovarian
[5] = system: KM20L2 colon
[6] = system: 786-0 renal
[7] = system: HCT-15 colon
[8] = system: U251 CNS
[9] = system: BT-549 breast

| SMILES | TGI [1] | TGI [2] | TGI [3] | TGI [4] | TGI [5] | TGI [6] | TGI [7] | TGI [8] | GI50 [1] | GI50 [2] | GI50 [7] | GI50 [4] | GI50 [5] | GI50 [6] | GI50 [8] | GI50 [3] | GI50 [9] | TGI [9] |
| --- | --- | --- | --- | --- | --- | --- | --- | --- | --- | --- | --- | --- | --- | --- | --- | --- | --- | --- |
| C/C(=N/N(C=O)C[n+]1ccccc1)C(CN(CC(C)C)CC(C)C)C(=O)Nc1ccc(C)cc1C (stereo not given) | > 100 µM | > 100 µM | > 100 µM | > 100 µM | > 100 µM | > 100 µM |  |  |  |  |  |  |  |  |  |  |  |  |
| Cc1cc(O)c2c(c1)C(O)(c1ccc3c(c1O)C(=O)c1c(O)cc(C)cc1C3(O)C1OC(CO)C(O)C(O)C1O)c1cccc(O)c1C2=O (stereo not given) |  |  | 25.8 µM | 28.1 µM | 36 µM | 29.2 µM | 26.1 µM | 23.8 µM |  |  |  |  |  |  |  |  |  |  |
| Cc1cc(Cl)ccc1NC(=O)C(=O)Cc1nc2ccc(C(=O)c3ccccc3)cc2[nH]c1=O | > 100 µM | > 100 µM | > 100 µM | > 100 µM | > 100 µM | > 100 µM | > 100 µM |  |  |  |  |  |  |  |  |  |  |  |
| COc1cc2nncc(Sc3cnnc4ccccc34)c2cc1OC |  | 36.2 µM | 73.9 µM | > 100 µM | 68.3 µM | 96.9 µM | 72.2 µM | 67.5 µM |  |  |  |  |  |  |  |  |  |  |
| COc1cc(C2c3cc4c(cc3[C@@H](Nc3ccc(N(C)C)cc3)[C@H]3COC(=O)C23)OCO4)cc(OC)c1O (stereo not given in full) | 2.41 µM and 3.64 µM | 9.12 µM and 12 µM |  | 14.7 µM and 19.9 µM | 3.02 µM and 10.7 µM | 1.37 µM and 4.91 µM | 8.16 µM and 11.3 µM | 1.33 µM and 3.37 µM | 0.453 µM | 3.58 µM | 1.82 µM | 4.57 µM | 2.41 µM | 0.362 µM | 0.195 µM |  |  |  |
| O=C(c1ccccc1)c1c(CC(O)c2cccnc2)n(C(=O)c2ccccc2)c2ccccc12 (stereo not given) |  | 35.8 µM | 63.4 µM | 55.5 µM | 42 µM | 99.4 µM | 60.3 µM | 30.7 µM |  |  |  |  |  |  |  |  |  |  |
| CC[O-].CC[O-].O=C1C(=C([O-])c2ccccc2)C(=O)c2ccccc21.O=C1C(=C([O-])c2ccccc2)C(=O)c2ccccc21.[Ti+4] | 99 µM | > 100 µM | > 100 µM | > 100 µM | > 100 µM | > 100 µM | > 100 µM |  | 26.6 µM | 66.3 µM | 52.9 µM | > 100 µM | > 100 µM | > 100 µM |  | > 100 µM |  |  |
| C[C@]12CC[C@@H]3c4ccc(O)c([N+](=O)[O-])c4CC[C@H]3[C@@H]1CC[C@@H]2NS(=O)(=O)c1ccc(C(F)(F)F)cc1 | 3.1 µM | 4.18 µM | 7.95 µM | 4.68 µM |  | 4.35 µM | 3.58 µM | 3.13 µM | 1.6 µM | 2.1 µM | 1.71 µM | 2.12 µM |  | 2.05 µM | 1.56 µM | 2.34 µM | 1.57 µM | 3.03 µM |
| O=C(O)c1cc[c]([Hg][S]c2ncnc3nc[nH]c23)cc1 | 38.6 µM | 19.4 µM | 21.8 µM | 23.8 µM |  | 21.9 µM | 27.2 µM | 28.2 µM | 17.5 µM | 4.83 µM | 11.2 µM | 9.25 µM |  | 5.83 µM | 14.4 µM | 4.55 µM | 8.12 µM | 21.6 µM |
| COC(=O)C1=CCON(c2ccccc2)C1c1ccccc1 (stereo not given) |  | > 100 µM | > 100 µM | > 100 µM | > 100 µM | > 100 µM | > 100 µM | > 100 µM |  |  |  |  |  |  |  |  |  |  |
| COc1cc(-c2csc(NC(=O)c3cc(C(F)(F)F)cc(C(F)(F)F)c3)n2)cc(OC)c1OC | > 100 µM | 4.81 µM | > 100 µM | > 100 µM |  | > 100 µM | > 100 µM | > 100 µM | 2.78 µM | 1.6 µM | 2.71 µM | 4.37 µM |  | 3.16 µM | 2.7 µM | 2.83 µM | 2.16 µM | 6.66 µM |
| Cc1ccc(C(=O)Nc2ccc(CN3CCN(C)CC3)c(C(F)(F)F)c2)cc1C#Cc1cnc(N)c2ccc(F)cc12 | 0.73 µM | 1.44 µM | 1.82 µM | 0.501 µM |  | 0.731 µM | 0.456 µM | 0.717 µM | 0.0793 µM | 0.27 µM | 0.112 µM | 0.0575 µM |  | 0.305 µM | 0.275 µM | 0.398 µM | 1.31 µM | 4.33 µM |
| COc1ccc(-c2cc(-c3ccc(Cl)cc3)c(C#N)c(=O)n2CCCCC(=O)Nc2ccccc2N)cc1 | > 100 µM | 37.8 µM | > 100 µM | > 100 µM |  | > 100 µM | 13 µM | > 100 µM | 9.32 µM | 9.05 µM | 3.03 µM | 4.9 µM |  | 7.46 µM | 7.97 µM | 4.87 µM | 4.71 µM | 31.9 µM |
| Clc1ccc(COC(Cn2ccnc2)c2ccc(Cl)cc2Cl)cc1 (stereo not given) | 12.7 µM and 25.3 µM | 5.08 µM and 28.9 µM and 28.8 µM | 14.1 µM and 23.7 µM and 21.1 µM | 12.3 µM and 25.8 µM and 26.1 µM |  | 4.01 µM and 25.8 µM and 26.3 µM | 12.7 µM and 27.5 µM | 7.46 µM and 28.6 µM and 26 µM | 2.5 µM | 2.32 µM | 3.24 µM | 2.62 µM |  | 1.88 µM | 2.04 µM | 3.22 µM | 2.48 µM | 6.63 µM and 35.3 µM and 30.4 µM |
| CCc1nc(N)nc(N)c1-c1ccc([N+](=O)[O-])c(NCc2ccccc2)c1 | 44.5 µM | 50.2 µM | 32.5 µM | 26.3 µM |  | 29.8 µM | 38.2 µM | 30.1 µM |  |  |  |  |  |  |  |  |  | 47.1 µM |
| O=C(Nc1ccc(OC(F)(F)F)cc1)c1sccc1NCc1ccnc2ccccc12 | > 100 µM | 4.3 µM | > 100 µM | 6.37 µM |  | > 88.1 µM | > 66.7 µM | > 100 µM | 2.97 µM | 1.28 µM | 3.22 µM | 1.68 µM |  | 7.53 µM | 6.92 µM | 3.72 µM | 6.9 µM | 51.5 µM |
| CC(C)N(C(=O)C12C3C4C1C1C2C3C41C(O)C(C)(C)C)C(C)C (stereo not given) | > 50 µM |  | > 50 µM | > 50 µM | > 50 µM | > 50 µM | > 50 µM | > 50 µM |  |  |  |  |  |  |  |  |  |  |
| CC1(C)CCC(C)(C)c2cc(C(=O)Nc3ccc(C(=O)O)cc3)ccc21 | > 100 µM | 44.7 µM | > 80.8 µM | 63.7 µM |  | > 56.5 µM | 63 µM | > 100 µM |  |  |  |  |  |  |  |  |  | 73 µM |
| COc1ccc(C2C(Cl)C(=O)N2n2cnc3ccccc3c2=O)cc1OC (stereo not given) | > 100 µM | > 100 µM |  | > 100 µM | > 100 µM | > 100 µM | > 100 µM | > 100 µM |  |  |  |  |  |  |  |  |  |  |
| CSc1ccc(C2=Nn3c(nnc3-c3ccc(F)c(Cl)c3)SC2)cc1 | 9.78 µM | 18 µM | > 100 µM | 44.4 µM |  | 32 µM | > 100 µM | 13.8 µM | 2.67 µM | 4.77 µM | 10.1 µM | 13.1 µM |  | 13.5 µM | 3.85 µM | 11.1 µM | 12.8 µM | 50.5 µM |
| C=C(C)C1CC2C(C)=C(OC(C)=O)C1n1c(=O)c3cc4ccccc4cc3c(=O)n12 (stereo not given) | > 100 µM | > 100 µM |  | > 100 µM | > 100 µM | > 100 µM | > 100 µM | > 100 µM |  |  |  |  |  |  |  |  |  |  |
| O=C1c2ccccc2N2OC3(N4CCCC4)CCCC3C12c1ccccc1 (stereo not given) | > 100 µM |  | > 100 µM | > 100 µM | > 100 µM | > 100 µM | > 100 µM | > 100 µM |  |  |  |  |  |  |  |  |  |  |
| CNC(=O)Nc1ccc(-c2nc(N3CCOCC3)nc3c2cnn3C2CCOCC2)cc1 | > 100 µM | 3.56 µM | > 100 µM | 0.493 µM |  | 2.86 µM | > 100 µM | > 38.6 µM | 0.213 µM | 0.382 µM | 0.26 µM | 0.0794 µM |  | 0.295 µM | 0.258 µM | 0.276 µM | 0.132 µM | 2.08 µM |
| Cc1cc(N(CCNc2ccnc3cc(Cl)ccc23)Cc2ccc3c(c2)OCO3)nc(N2CCN(C)CC2)n1 | 14.2 µM | 4.02 µM | 9.31 µM | 12.7 µM |  | 3.29 µM | 3.82 µM | 4.25 µM | 3.77 µM | 1.98 µM | 1.55 µM | 3.09 µM |  | 1.59 µM | 2.01 µM | 2.98 µM | 2.17 µM | 5.54 µM |
| COc1cc(-c2oc3ccccc3c(=O)c2O)cc(OC)c1OC | > 100 µM | > 100 µM | > 30.5 µM | > 100 µM |  | 41.6 µM | > 100 µM | > 100 µM |  |  |  |  |  |  |  |  |  | > 100 µM |
| CN1C2CC(C#N)C1C=CC2=O (stereo not given) | > 100 µM | 51.4 µM and > 100 µM | 29.9 µM and > 100 µM | > 100 µM |  | 42.6 µM and > 100 µM | 40.7 µM and > 100 µM | 61.5 µM and > 100 µM | > 100 µM |  | 13.6 µM and > 100 µM | 42.8 µM and > 100 µM |  | 17.4 µM and > 100 µM | 12.4 µM and 72.1 µM |  | 38.7 µM and > 100 µM | 75.1 µM and > 100 µM |
| CC1(C)N=C(N)N=C(N)N1c1ccc(CCc2ccccc2)c(Cl)c1 | 13 µM | 17.5 µM | 15.3 µM | 15.7 µM |  | 14.6 µM | > 100 µM | 13 µM | 0.0883 µM | 1.01 µM | 2.55 µM | 0.0668 µM |  | 0.179 µM | 0.0427 µM | 0.0597 µM | 1.11 µM | 12.5 µM |
